Measurements taken from patent publication US20240327421A1 (Marquette University, priority 2017, published 2024).
Entries after “also recorded” stand apart in the source; their conditions may differ.

Assays:
CYP3A4 = biological target: T1, CYP3A4 (Homo sapiens, UniProt P08684); experiment: P450-Glo CYP450 inhibition, CYP3A4; format: in vitro ADME; conditions: highest concentration 62.6 μM
T1 construct: purchased Promega Corporation (Madison, WI)
Protocol: (§1) In Vitro Druggability Assays-CYP450 Binding, hERG & Nephelometry. The P450-Glo™ Screening System from Promega Corporation (Madison, WI) was used to measure CYP450 (cytochrome P450) inhibition, as described in the kit instructions. Assays were run in 96-well white plates (Corning® 3912), and luminescence was measured on a SpectraMax M5 instrument (FIG. 6). The luminescence signal is proportional to the amount of luciferin product formed by the CYP reaction. Compounds were prepared in DMSO, then an eight-step 1:2 dilution series was made in DMSO. […] After adding the relevant Cytochrome P450 enzyme, the plate was incubated at 37° C. for 10 minutes to allow components to come to temperature. Next, the NADPH regeneration system was added to activate the reaction on a luminogenic P450-GloTM substrate, and incubated at 37° C. for 10-30 min, according to kit instructions for each CYP enzyme. The enzyme reaction was stopped by the addition of Luciferin Detection Reagent and luminescence of the plate was read in a Spectramax M5 (Molecular Devices) after a 20 min incubation at room temperature. Data were normalized to positive controls (α-naphthoflavone for CYP1A2, sulfaphenazole for CYP2C9, quinidine for CYP2D6, and ketoconazole for CYP3A4). Data analysis was with Prism software, as described above.

[1] = biological target: T2, Thyroid Hormone Receptor (TRβ) (Homo sapiens, UniProt P10828); experiment: GeneBLAzer nuclear hormone receptor specificity assay, TRβ; format: cell-based; conditions: 0.25 to 25 μM; listed as ISP358-2
T2 sequence (P10828 217-461 limits assumed): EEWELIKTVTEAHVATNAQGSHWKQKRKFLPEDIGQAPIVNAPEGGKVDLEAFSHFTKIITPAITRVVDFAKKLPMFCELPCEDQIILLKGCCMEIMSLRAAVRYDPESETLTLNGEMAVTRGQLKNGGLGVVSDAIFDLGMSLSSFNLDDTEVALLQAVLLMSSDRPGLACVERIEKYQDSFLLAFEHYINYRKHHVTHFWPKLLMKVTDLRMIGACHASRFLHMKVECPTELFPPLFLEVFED

Vitamin D Receptor (VDR) = biological target: T3, Vitamin D Receptor (VDR) (Homo sapiens, UniProt P11473); experiment: GeneBLAzer nuclear hormone receptor specificity assay, VDR; format: cell-based; conditions: 0.25 to 25 μM; listed as ISP358-2
T3 sequence (P11473 127-423 limits assumed): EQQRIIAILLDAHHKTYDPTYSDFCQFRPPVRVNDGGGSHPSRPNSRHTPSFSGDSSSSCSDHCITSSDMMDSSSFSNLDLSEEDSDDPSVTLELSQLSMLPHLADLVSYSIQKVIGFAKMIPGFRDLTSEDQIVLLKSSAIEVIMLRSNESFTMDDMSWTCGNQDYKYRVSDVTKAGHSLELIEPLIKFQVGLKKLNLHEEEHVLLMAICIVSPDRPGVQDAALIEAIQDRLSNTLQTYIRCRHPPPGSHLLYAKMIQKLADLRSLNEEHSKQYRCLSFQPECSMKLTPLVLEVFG

[2] = biological target: T4, ERα LBD fused to GAL4 DBD (Homo sapiens, UniProt P03372); experiment: GeneBLAzer cell-based transcriptional activation, chimeric ERα; conditions: agonist mode
T4 sequence (P03372 311-547 limits assumed): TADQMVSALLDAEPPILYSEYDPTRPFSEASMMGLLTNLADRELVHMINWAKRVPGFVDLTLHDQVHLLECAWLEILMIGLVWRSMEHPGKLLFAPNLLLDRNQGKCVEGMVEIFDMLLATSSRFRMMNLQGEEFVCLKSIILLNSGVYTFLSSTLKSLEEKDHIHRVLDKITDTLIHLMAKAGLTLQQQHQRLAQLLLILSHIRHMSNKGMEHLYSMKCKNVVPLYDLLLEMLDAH

ovariectomized mice [3] = experiment: Peripheral tissue pathology (H&E of liver, kidney, heart); format: in vivo; conditions: 24 h after single IP injection; 0.5 or 5 mg/kg ISP358-2, 0.05 mg/kg DPN
Protocol: Assessment of Potential Peripheral Pathology. To assess possible toxicity of ISP358-2 treatment to peripheral organs, ovariectomized mice received a single intraperitoneal injection of vehicle or ISP358-2, and liver, kidney, and heart tissues were collected 24 hours later. […] Tissues were fixed in 10% formalin buffered solution for 24 hours. Twenty specimens were processed and analyzed. Each specimen contained three pieces of tissue. The tissues from each animal was transferred to a labeled cassette and processed on an automated tissue processor following standard procedures. The tissues were then embedded in paraffin wax. No specific orientation of the tissue was performed. Four-micron sections were cut from each paraffin block and placed onto a slide. The slides were then stained using hematoxylin and cosin (H&E) on an automated stainer (FIGS. 13A-13L). The slides were then examined by a pathologist (ACM) who is board certified in anatomical pathology by the American Board of Pathology. All specimens contained three tissue samples corresponding to liver, kidney, and heart. In some instances, portions of adjacent tissues were also present. […] For heart, the myocytes and coronary vessels were examined, (2) evidence of inflammation was evaluated including hepatitis, glomerulonephritis, interstitial nephritis, and myocarditis, and (3) evidence of ischemic changes was examined. […]

[4] = Nephelometry (aggregation / solubility)
Androgen Receptor (AR) = biological target: T5, Androgen Receptor (AR) (Homo sapiens, UniProt P10275); experiment: GeneBLAzer nuclear hormone receptor specificity assay, AR; format: cell-based; conditions: 0.25 to 25 μM; listed as ISP358-2
T5 sequence (P10275 669-900 limits assumed): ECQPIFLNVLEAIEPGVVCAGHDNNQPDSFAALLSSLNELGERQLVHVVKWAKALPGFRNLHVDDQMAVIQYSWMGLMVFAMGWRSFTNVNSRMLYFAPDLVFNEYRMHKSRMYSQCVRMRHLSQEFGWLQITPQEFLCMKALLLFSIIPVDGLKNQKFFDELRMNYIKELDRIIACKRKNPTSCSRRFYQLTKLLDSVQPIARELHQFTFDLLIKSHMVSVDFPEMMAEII

CYP2D6 = biological target: T6, CYP2D6 (Homo sapiens, UniProt P10635); experiment: P450-Glo CYP450 inhibition, CYP2D6; format: in vitro ADME; conditions: highest concentration 62.6 μM; listed as ISP358-2
T6 construct: purchased Promega Corporation (Madison, WI)
Protocol: as §1

ovariectomized mice [5] = experiment: Object placement (spatial memory consolidation) test; conditions: for object placement: spatial memory consolidation after long-term ovariectomy: oral gavage 4 months after ovariectomy, same doses (0.5 or 5 mg/kg ISP358-2, 0.05 mg/kg DPN), preliminary

T6 sequence (P10635 whole entry): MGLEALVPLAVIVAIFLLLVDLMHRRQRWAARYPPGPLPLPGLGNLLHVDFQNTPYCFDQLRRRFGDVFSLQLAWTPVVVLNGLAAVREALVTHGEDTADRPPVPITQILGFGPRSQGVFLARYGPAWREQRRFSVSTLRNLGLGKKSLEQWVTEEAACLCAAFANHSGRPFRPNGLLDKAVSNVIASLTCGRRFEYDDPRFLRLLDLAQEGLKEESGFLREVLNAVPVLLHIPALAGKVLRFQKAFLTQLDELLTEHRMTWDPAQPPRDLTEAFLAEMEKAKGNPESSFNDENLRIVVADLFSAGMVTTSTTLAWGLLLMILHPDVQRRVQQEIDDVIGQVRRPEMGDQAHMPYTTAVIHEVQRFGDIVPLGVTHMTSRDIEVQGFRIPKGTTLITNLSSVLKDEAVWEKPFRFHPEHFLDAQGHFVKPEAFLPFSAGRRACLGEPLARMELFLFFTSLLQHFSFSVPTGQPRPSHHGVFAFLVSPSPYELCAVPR
T1 sequence (P08684 whole entry): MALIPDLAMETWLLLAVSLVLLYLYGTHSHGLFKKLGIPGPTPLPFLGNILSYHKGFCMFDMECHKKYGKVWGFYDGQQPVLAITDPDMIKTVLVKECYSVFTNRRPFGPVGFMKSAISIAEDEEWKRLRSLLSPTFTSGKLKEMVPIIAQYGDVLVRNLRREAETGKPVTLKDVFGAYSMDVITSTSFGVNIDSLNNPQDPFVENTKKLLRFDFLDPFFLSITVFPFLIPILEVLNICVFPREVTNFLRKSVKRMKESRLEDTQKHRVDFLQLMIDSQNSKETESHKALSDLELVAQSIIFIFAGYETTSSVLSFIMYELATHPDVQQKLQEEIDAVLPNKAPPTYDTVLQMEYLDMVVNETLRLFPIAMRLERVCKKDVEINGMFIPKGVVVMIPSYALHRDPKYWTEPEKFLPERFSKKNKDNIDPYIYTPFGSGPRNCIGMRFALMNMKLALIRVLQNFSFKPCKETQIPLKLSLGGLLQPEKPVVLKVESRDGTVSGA

OC[C@H]1CC[C@H](c2ccc(O)cc2)CC1 [Compound 16]
CYP3A4 inhibition (CYP3A4): no significant inhibition | IC50 (CYP3A4): 89 ± 18 µM | agonist activity, TRβ [1]: not an agonist; also recorded: no significant off-target activity | agonist activity, VDR (Vitamin D Receptor (VDR)): not an agonist; also recorded: no significant off-target activity | IC50 [2]: 0.93 ± 0.069 µM | histological abnormalities / peripheral toxicity in liver, kidney, heart (ovariectomized mice [3]): unremarkable; also recorded: no obvious signs of peripheral toxicity; also recorded: Histological abnormalities were not detected | solubility / aggregation by nephelometry [4]: reasonably soluble | agonist activity, AR (Androgen Receptor (AR)): not an agonist; also recorded: no significant off-target activity | CYP2D6 inhibition (CYP2D6): no significant inhibition | object placement: time with moved object / memory consolidation (ovariectomized mice [5]; IP injection, 0.5 mg/kg, listed as ISP358-2, 0.5 mg/kg): spent significantly more time than chance with the moved object; also recorded: most effectively enhanced consolidation; also recorded: enhanced memory consolidation | object placement: time with moved object / memory consolidation (ovariectomized mice [5]; IP injection, 5 mg/kg, listed as ISP358-2, 5 mg/kg): spent significantly more time than chance with the moved object; also recorded: also enhanced OP memory consolidation | object placement: time with moved object / memory consolidation (ovariectomized mice [5]; dorsal hippocampal infusion, 10 pg/hemisphere, tested 24 h after training, chance 15 s): did not spend significantly more time than chance with the moved object | object placement: time with moved object / memory consolidation (ovariectomized mice [5]; dorsal hippocampal infusion, 100 pg/hemisphere, tested 24 h after training, listed as ISP358-2): spent significantly more time than chance with the moved object; also recorded: enhanced memory consolidation; also recorded: significantly increased time was spent | object placement: time with moved object / memory consolidation (ovariectomized mice [5]; dorsal hippocampal infusion, 1 ng/hemisphere, tested 24 h after training, listed as ISP358-2): spent significantly more time than chance with the moved object; also recorded: enhanced memory consolidation; also recorded: significantly increased time was spent | object placement: spatial memory consolidation after long-term ovariectomy (ovariectomized mice [5]): did not enhance spatial memory consolidation | object placement: spatial memory consolidation after long-term ovariectomy (ovariectomized mice [5]; listed as ISP358-2): neither DPN nor ISP358-2 affected memory | object placement: time with moved object / memory consolidation (ovariectomized mice [5]; oral gavage, 0.5 mg/kg, within 1 month of ovariectomy, listed as ISP358-2, 0.5 mg/kg): exhibited a significant preference for the moved object relative to chance; also recorded: enhanced memory consolidation | object placement: time with moved object / memory consolidation (ovariectomized mice [5]; oral gavage, 5 mg/kg, within 1 month of ovariectomy, listed as ISP358-2, 5 mg/kg): exhibited a significant preference for the moved object relative to chance; also recorded: most effective; also recorded: enhanced memory consolidation
